# Values of other authors in publication PMC8352932, “Targeted activity of the small molecule kinase inhibitor Pz-1 towards RET and TRK kinases” (Scientific Reports, 2021).
# pIC50: −log10 of the molar value. Values joined by “and” are separate entries in the source; they are usually repeats but may differ in a detail not shown here. Equal entries are not always repeated.
# Experiments:
# Settings in all cases: read-out: cell proliferation IC50
# [1] = test system: KIF5B-RET Ba/F3 cells
# [2] = test system: MPRIP-TRKA Ba/F3 cells; parameters: method as in PMID 24162815
# [3] = test system: TEL-TRKA Ba/F3 cells
pIC50 [1],Compound,further results
6.47,COc1cc2nccc(Oc3ccc(NC(=O)C4(C(=O)Nc5ccc(F)cc5)CC4)cc3)c2cc1OC [cabozantinib],
,O=C(Nc1cnn2ccc(N3CCC[C@@H]3c3cc(F)ccc3F)nc12)N1CC[C@H](O)C1 [larotrectinib],pIC50 [2]: 8.10
8.10,COc1ccc(CN2C3CC2CN(c2ccc(-c4cc(OCC(C)(C)O)cn5ncc(C#N)c45)cn2)C3)cn1 [selpercatinib],
,CN1CCN(c2ccc(C(=O)Nc3n[nH]c4ccc(Cc5cc(F)cc(F)c5)cc34)c(NC3CCOCC3)c2)CC1 [entrectinib],pIC50 [3]: 8.55
8.01 and 7.78,CO[C@]1(C(=O)N[C@@H](C)c2ccc(-n3cc(F)cn3)nc2)CC[C@H](c2nc(C)cc(Nc3cc(C)[nH]n3)n2)CC1 [pralsetinib],
